Read-outs that look alike come from different tables or passages of the source.

Test [1] relates to HaCaT cells. The experiment in a line: Cytotoxicity (resazurin cell viability) in HaCaT cells. Type of test: cell-based, human. The text has this: (§1) The MET1 SCC cell line (human squamous cell carcinoma) was obtained from Ximbio (London, UK), HaCaT (immortalized human keratinocytes cell line) was obtained from Addexbio (San Diego, CA, USA) and WM983b (human metastatic melanoma cell line) was obtained from Rockland (Pottstown, PA, USA). Cells were maintained in Dulbecco’s Modified Eagle Medium (DMEM) supplemented with 10% (v/v) fetal bovine serum (FBS) for MET1 and HaCaT and 5% (v/v) for WM983b cells, and Pen–Strep (penicillin 100 U/mL and streptomycin 100 µg/mL). Cells were cultivated in an incubator (Sanyo MCO-19AIC-UV) at 37 °C in a 5% CO2 humidified atmosphere.
(§2) First, 96-well plates were seeded with HaCaT and MET1 cells at a density of 20,000 cells/cm² and incubated for 24 h. After that period, the culture medium was replaced by culture medium containing different compounds: MB, AO, GV, QT, CUR, EGCG, PHE, NEO and BIPY. The compounds were diluted in culture medium using a range of concentrations of each compound from 1.25 µM to 320 µM (in quadruplicate). The medium was aspirated from the 96-well plate and replaced by the samples diluted in medium. Cells cultured with complete medium and cells cultured with medium supplemented with 0.2% (v/v) or 10% (v/v) of DMSO were used as negative (NC), solvent (SC) and positive controls (PC), respectively. The plates were incubated for 24 and 48 h, followed by evaluation of cell viability using a colorimetric assay. Cells containing samples were washed with PBS supplemented with calcium and magnesium; then, resazurin solution diluted in DMEM at 0.02 mg/mL was added. The medium containing resazurin was also dispensed in wells without cells, which were used as references. After 3 h of incubation, the absorbance was measured in a microplate reader (ELX800UV, Biotek Instruments) at wavelengths of 570 nm and 600 nm. The corrected absorbance was proportional to cell viability. Propagation of uncertainties was used to calculate the combined standard uncertainty. For the cytotoxicity study using WM983b cells, plates were seeded at a density of 40,000 cells/cm², and cells were treated only with MB and AO.

Test [2] concerns MET1 cells. The experiment in a line: Cytotoxicity (resazurin cell viability) in MET1 cells. Type of test: cell-based, human.
Excerpt: as §1, §2

In test [3] the test system is MET1 cells. The experiment in a line: Phototoxicity assay in MET1 cells (irradiation 2.5 J/cm², resazurin). The conditions noted are these: for phototoxicity in the investigated range: 1.25-40 µM, irradiated vs dark. The format is cell-based, human. The method, then: The […] SCC cell line (human squamous cell carcinoma) was obtained from Ximbio (London, UK), HaCaT (immortalized human keratinocytes cell line) was obtained from Addexbio (San Diego, CA, USA) and WM983b (human metastatic melanoma cell line) was obtained from Rockland (Pottstown, PA, USA). […] Cells were cultivated in an incubator (Sanyo MCO-19AIC-UV) at 37 °C in a 5% CO2 humidified atmosphere. […] The plates were incubated for 24 h, followed by washing with PBS supplemented with calcium and magnesium. Afterwards, complete culture medium without phenol red was added, and the plates were irradiated from above and submitted to a dose of 2.5 J/cm2 of irradiation emitted by different wavelength light sources coupled with a homemade irradiation system created in our laboratory. […] This experiment was performed in an incubator that was able to keep plates in a dark environment; therefore, the dark control plates were protected from any light source, as well as the others, with the exception of the irradiation that each one was submitted to. Plates were incubated for another 24 h, and finally, the resazurin assay was performed as previously described in Section 3.3. For the phototoxicity study using WM983b cells, plates were prepared at a cell density of 40,000 cells/cm2, and cells were treated with MB and AO only.

The subject of test [4] is WM983b cells. As to the kind of experiment: Cytotoxicity (resazurin cell viability) in WM983b cells. The format is cell-based, human. The note with it: for IC50: Homo sapiens, 1.25-320 µM.
Excerpt: as §1, §2
On the technique in general: Resazurin is reduced to fluorescent resorufin, in cell work by metabolically active cells.

The subject of test [5] is WM983b cells. As to the kind of experiment: Phototoxicity assay in WM983b cells (irradiation 2.5 J/cm², resazurin). Type of test: cell-based. The note with it: Homo sapiens, light or radiation study, treated 24 h.
Excerpt: as §1
For the phototoxicity studies, 96-well plates were seeded with MET1 cells at a density of 20,000 cells/cm², incubated overnight and treated for 24 h with MB, AO, GV, QT, CUR, EGCG, PHE, NEO and BIPY diluted in culture medium in a concentration range of 1.25 µM to 40 µM (in sextuplicate). […] Cells cultured with complete medium and cells cultured with medium supplemented with 0.2% (v/v) or 10% (v/v) of DMSO were used as negative (NC), solvent (SC) and positive control (PC), respectively. The plates were incubated for 24 h, followed by washing with PBS supplemented with calcium and magnesium. Afterwards, complete culture medium without phenol red was added, and the plates were irradiated from above and submitted to a dose of 2.5 J/cm² of irradiation emitted by different wavelength light sources coupled with a homemade irradiation system created in our laboratory. These light sources consisted of an equivalent 26 cm UV tubular lamp (254 nm) (Phillips TUV PLS 9W/2PHg) and a tricolor LED lamp (Led Grow Light Bulb E26/E27) with intensity peaks at 457 nm (blue light), 583 nm (yellow light) and 640 nm (red light) provided by 18, 18 and 28 LEDs, respectively, with dimensions of 3 × 3 mm^2. The irradiance values of light at 254, 457, 583 and 640 nm wavelengths were of 16.7, 55, 45 and 25 W/m^2, respectively. This experiment was performed in an incubator that was able to keep plates in a dark environment; therefore, the dark control plates were protected from any light source, as well as the others, with the exception of the irradiation that each one was submitted to. Plates were incubated for another 24 h, and finally, the resazurin assay was performed as previously described in Section 3.3. For the phototoxicity study using WM983b cells, plates were prepared at a cell density of 40,000 cells/cm², and cells were treated with MB and AO only.

Where [6] appears, read: Homo sapiens, HaCaT cells, 24 h exposure, 1.25-320 µM, read-out: IC50 HaCaT Cells 24 h.
Setting [7] is: Homo sapiens, HaCaT cells, 48 h exposure, 1.25-320 µM, read-out: IC50 HaCaT Cells 48 h.
Setting [8] is: Homo sapiens, MET-1, MET1 cells, 24 h exposure, 1.25-320 µM, read-out: IC50 MET1 Cells 24 h.
Where [9] appears, read: Homo sapiens, MET-1, MET1 cells, 48 h exposure, 1.25-320 µM, read-out: IC50 MET1 Cells 48 h.
[10] abbreviates: Homo sapiens, MET-1, MET1 cells, exposure time not given, read-out: IC50 in MET1 cells (summary statement).
[11] abbreviates: Homo sapiens, MET-1, light or radiation study, MET1 cells, treated 24 h, 254 nm light, 2.5 J/cm², read-out: IC50 254 nm.
[12] abbreviates: Homo sapiens, MET-1, light or radiation study, MET1 cells, treated 24 h, 457 nm light, 2.5 J/cm², read-out: IC50 457 nm.
Setting [13] is: Homo sapiens, MET-1, light or radiation study, MET1 cells, treated 24 h, 583 nm light, 2.5 J/cm², read-out: IC50 583 nm.
Where [14] appears, read: Homo sapiens, MET-1, light or radiation study, MET1 cells, treated 24 h, 640 nm light, 2.5 J/cm², read-out: IC50 640 nm.
The mark [15] stands for this setting: Homo sapiens, MET-1, light or radiation study, MET1 cells, treated 24 h, dark control (no irradiation), read-out: IC50 Dark.
[16] abbreviates: Homo sapiens, MET-1, light or radiation study, MET1 cells, light condition not stated, read-out: IC50 phototoxicity results (summary statement).

In the case of `c1cnc2c(c1)ccc1cccnc12` [1,10-phenanthroline], the IC50 in test [1] (setting [6]) was 35.2 µM; in test [1] (setting [7]), 5.9 µM; in test [2] (setting [8]), 124 µM; in test [2] (setting [9]), 7.7 µM; in test [2] (setting [10]), greater than 100 µM; in test [3] (setting [11]), 6 µM. Also, the IC50 was determined as 4.9 µM in test [3] (setting [12]), 6.8 µM in test [3] (setting [13]), 4.8 µM in test [3] (setting [14]) and 7.4 µM in test [3] (setting [15]).
`c1ccc(-c2ccccn2)nc1` [2,2′-bipyridyl]: the IC50 in test [1] (Homo sapiens, HaCaT, 24 h, read-out: IC50 HaCaT Cells 24 h) was 125 µM; in test [1] (Homo sapiens, HaCaT, 48 h, read-out: IC50 HaCaT Cells 48 h), 57.8 µM; in test [2] (Homo sapiens, MET-1, 24 h, read-out: IC50 MET1 Cells 24 h), 275 µM; in test [2] (Homo sapiens, MET-1, 48 h, read-out: IC50 MET1 Cells 48 h) it was 97.2 µM; in test [2] (Homo sapiens, MET-1, read-out: IC50 in MET1 cells (summary statement)), greater than 100 µM; in test [3] (Homo sapiens, MET-1, light or radiation study, 24 h, read-out: IC50 254 nm), 225 µM. The IC50 was 171 µM in test [3] (Homo sapiens, MET-1, light or radiation study, 24 h, read-out: IC50 457 nm); 190 µM in test [3] (Homo sapiens, MET-1, light or radiation study, 24 h, read-out: IC50 583 nm); 202 µM in test [3] (Homo sapiens, MET-1, light or radiation study, 24 h, read-out: IC50 640 nm); 228 µM in test [3] (Homo sapiens, MET-1, light or radiation study, 24 h, read-out: IC50 Dark); greater than 100 µM in test [3] (Homo sapiens, MET-1, light or radiation study, read-out: IC50 phototoxicity results (summary statement)). Further, the “phototoxicity in the investigated range” value in test [3] (MET1 cells) is “did not show phototoxicity”.
As to `COc1cc(/C=C/C(=O)CC(=O)/C=C/c2ccc(O)c(OC)c2)ccc1O` [Curcumin, curcumin], the IC50 in test [1] (setting [6]) was 9 µM; in test [1] (setting [7]), 11.7 µM; in test [2] (setting [8]) it was 26 µM; in test [2] (setting [9]), 7.2 µM; in test [2] (setting [10]), less than 30 µM; in test [3] (Homo sapiens, MET-1, light or radiation study, MET1 cells, 640, 583, 457 and 254 nm, 2.5 J/cm², read-out: IC50 values under irradiation (all wavelengths together)) it was less than 11.5 µM. Besides, the IC50 in test [3] (setting [16]) is less than 20 µM; in test [3] (setting [11]), 9.3 µM; in test [3] (setting [12]) it was 10.7 µM; in test [3] (setting [13]), 11.5 µM; in test [3] (setting [14]), 11 µM; in test [3] (setting [15]) it was 15.5 µM.
In the case of `O=C(O[C@@H]1Cc2c(O)cc(O)cc2O[C@@H]1c1cc(O)c(O)c(O)c1)c1cc(O)c(O)c(O)c1` [Epigallocatechin gallate, epigallocatechin gallate], the IC50 is 211 µM in test [1] (HaCaT cells, 24 h exposure, 1.25-320 µM, read-out: IC50 HaCaT Cells 24 h); 174 µM in test [1] (HaCaT cells, 48 h exposure, 1.25-320 µM, read-out: IC50 HaCaT Cells 48 h); 174 µM in test [2] (MET1 cells, 24 h exposure, 1.25-320 µM, read-out: IC50 MET1 Cells 24 h); 136 µM in test [2] (MET1 cells, 48 h exposure, 1.25-320 µM, read-out: IC50 MET1 Cells 48 h); greater than 100 µM in test [3] (MET1 cells, light condition not stated, read-out: IC50 phototoxicity results (summary statement)); 193 µM in test [3] (MET1 cells, treated 24 h, 254 nm light, 2.5 J/cm², read-out: IC50 254 nm). The IC50 was determined as 222 µM in test [3] (MET1 cells, treated 24 h, 457 nm light, 2.5 J/cm², read-out: IC50 457 nm); 211 µM in test [3] (MET1 cells, treated 24 h, 583 nm light, 2.5 J/cm², read-out: IC50 583 nm); 224 µM in test [3] (MET1 cells, treated 24 h, 640 nm light, 2.5 J/cm², read-out: IC50 640 nm); 191 µM in test [3] (MET1 cells, treated 24 h, dark control (no irradiation), read-out: IC50 Dark). For the same compound, in test [3] (MET1 cells), the “phototoxicity in the investigated range” value is given as “no phototoxicity was observed”.
Consider `CN(C)c1ccc2nc3ccc(=[N+](C)C)cc-3sc2c1` [Methylene blue, methylene blue], for which the IC50 in test [1] (setting [6]) amounted to 11.6 µM; in test [1] (setting [7]), 7.1 µM; in test [2] (setting [8]) it was 14.2 µM; in test [2] (setting [9]) it was 4.2 µM; in test [4] (24 h exposure, read-out: IC50 WM983b cells 24 h), 18 µM; in test [4] (48 h exposure, read-out: IC50 WM983b cells 48 h), 6.1 µM. Further, the IC50 in test [3] (setting [11]) came out at 4.3 µM; in test [3] (setting [12]), 6.2 µM; in test [3] (setting [13]) it was 5 µM; in test [3] (setting [14]) it was 3.8 µM; in test [3] (setting [15]) it was 10.9 µM; in test [5] (640 nm light, 2.5 J/cm², read-out: IC50 irradiated samples (640 nm)), 2.1 µM. Also, the IC50 in test [5] (without irradiation, read-out: IC50 non-irradiated samples) stood at 7.3 µM. The “concentration above which the relative cell population falls below 70%” value in test [4] (24 or 48 h) is “above 10 µM”.
For `O=c1c(O)c(-c2ccc(O)c(O)c2)oc2cc(O)cc(O)c12` [Quercetin, quercetin], the IC50 was greater than 320 µM in test [1] (setting [6]); 315 µM in test [1] (setting [7]); greater than 320 µM in test [2] (setting [8]); 110 µM in test [2] (setting [9]); greater than 100 µM in test [2] (setting [10]); greater than 100 µM in test [3] (setting [16]). Moreover, the 50% inhibitory concentration (IC50) came to 205 µM in test [3] (setting [11]); 288 µM in test [3] (setting [12]); 269 µM in test [3] (setting [13]); 340 µM in test [3] (setting [14]); 230 µM in test [3] (setting [15]).

A word on the IC50: it is the concentration that gives 50% inhibition.

The values are drawn from publication PMC10054552, “Phototoxic Potential of Different DNA Intercalators for Skin Cancer Therapy: In Vitro Screening” (International Journal of Molecular Sciences, 2023).
